Test systems include KM12 colon; RXF 393 renal; RPMI-8226 leukemia; NCI-H460 lung; HOP-62 NSCLC; SK-OV-3 ovarian; EKVX NSCLC; SK-MEL-5 melanoma; K-562 leukemia.
What all share (test): growth of human tumour cells (NCI), 48 h

Consider 15 molecules from PubChem BioAssay (NCI).

Values joined by “and” are separate entries in the source; they are usually repeats but may differ in a detail not shown here. Equal entries are not always repeated.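 Briefly, cells in 96-well plates were exposed to five compound concentrations for 48 h, and endpoints were estimated by linear interpolation. GI50 marks 50% less growth. TGI is the concentration that stops growth completely.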 Bounds are passed on as bounds.

In the case of `CC(C)(C)C1CCC(O)(c2ccccc2)CC1` (stereo not drawn), the TGI in the assay on KM12 colon is > 100 µM and 63.6 µM; in the assay on RXF 393 renal it was > 100 µM and 41.8 µM; in the assay on RPMI-8226 leukemia, > 100 µM and 66.6 µM; with NCI-H460 lung, > 100 µM and 55.8 µM; in the assay on HOP-62 NSCLC, above 100 µM; in the assay with SK-OV-3 ovarian, above 100 µM. Also, the TGI is > 100 µM and 75.3 µM in the assay with EKVX NSCLC; > 100 µM and 28.5 µM with SK-MEL-5 melanoma; > 100 µM and 68.2 µM in the assay on K-562 leukemia.
In the case of `COc1ccc2cc3n(c(=O)c2c1)CCc1c-3cc(OC)c(OC)c1OC`, the TGI in the assay with RPMI-8226 leukemia, in the assay on HOP-62 NSCLC, in the assay with SK-OV-3 ovarian, in the assay on EKVX NSCLC, in the assay with SK-MEL-5 melanoma and in the assay on K-562 leukemia was above 100 µM throughout.
Regarding `CN(C)c1ccc(/C=c2/sc3nc(=O)c(-c4ccccc4NC(=O)C(F)(F)F)nn3c2=O)cc1`, the TGI with KM12 colon, with RXF 393 renal, in the assay on NCI-H460 lung, with HOP-62 NSCLC, in the assay with SK-OV-3 ovarian and in the assay with EKVX NSCLC was above 100 µM in each case. Besides, the TGI in the assay on SK-MEL-5 melanoma and in the assay on K-562 leukemia was above 100 µM each time.
For `CC(=O)O[C@H]1C[C@@H]2[C@@]3(C)CC[C@H]4C[C@@]4(C)[C@@H]3CC[C@@]2(C)C2=CCC3=C(COC3=O)[C@]21C`, the GI50 in the assay on KM12 colon is 18.7 µM; with RXF 393 renal, 21.2 µM; in the assay on RPMI-8226 leukemia, 17.9 µM; in the assay on NCI-H460 lung, 29.9 µM; with HOP-62 NSCLC it was 17.5 µM; with SK-OV-3 ovarian, 32.6 µM. The GI50 in the assay with EKVX NSCLC was 17.6 µM; in the assay on SK-MEL-5 melanoma it was 17.7 µM; in the assay with K-562 leukemia, 40.4 µM. Besides, the TGI in the assay with KM12 colon was 43.6 µM; with RXF 393 renal, 52.6 µM; in the assay on RPMI-8226 leukemia, 50.2 µM; with NCI-H460 lung it was above 100 µM; in the assay on HOP-62 NSCLC it was 36.4 µM; with SK-OV-3 ovarian it was above 100 µM. In addition, the TGI was 35 µM in the assay on EKVX NSCLC, 34.5 µM in the assay with SK-MEL-5 melanoma and above 100 µM with K-562 leukemia.
Turning to `CC(C)(C)c1ccc(OCCOCCOc2ccc(C(C)(C)C)cc2S(N)(=O)=O)c(S(N)(=O)=O)c1`, the TGI in the assay on KM12 colon, in the assay with RXF 393 renal, in the assay with RPMI-8226 leukemia, with NCI-H460 lung, in the assay with HOP-62 NSCLC and in the assay on SK-OV-3 ovarian was above 100 µM throughout. Moreover, the TGI in the assay with EKVX NSCLC, in the assay with SK-MEL-5 melanoma and with K-562 leukemia was above 100 µM throughout.
On to `CCN1CCN(CC(=O)Nc2nc3ccc(NCc4ccc(Br)cc4)cc3s2)CC1`, for which the GI50 was 3.25 µM in the assay on KM12 colon; 1.63 µM in the assay with RXF 393 renal; 1.54 µM in the assay with RPMI-8226 leukemia; 3.02 µM in the assay on EKVX NSCLC; 1.68 µM in the assay with SK-MEL-5 melanoma. In addition, the TGI in the assay with KM12 colon is above 100 µM; with RXF 393 renal it was 3.25 µM; in the assay on RPMI-8226 leukemia it was 4.07 µM; with EKVX NSCLC it was above 100 µM; in the assay on SK-MEL-5 melanoma, 3.08 µM.
In the case of `ON1CCc2c([nH]c3ccccc23)C1c1ccc(Cl)cc1` (stereo not drawn), the TGI in the assay on KM12 colon is 92.9 µM; in the assay on RXF 393 renal it was 60.3 µM; in the assay with RPMI-8226 leukemia, 84.3 µM; in the assay on HOP-62 NSCLC, above 100 µM; in the assay on SK-OV-3 ovarian, above 100 µM; in the assay with EKVX NSCLC it was above 100 µM. The TGI in the assay with K-562 leukemia was above 100 µM.
In the case of `CNS(=O)(=O)NNS(=O)(=O)c1ccc(C)cc1`, the TGI with KM12 colon, in the assay on RXF 393 renal, in the assay on RPMI-8226 leukemia, in the assay on NCI-H460 lung, in the assay with HOP-62 NSCLC and with SK-OV-3 ovarian was above 100 µM each time. In addition, the TGI in the assay with EKVX NSCLC, with SK-MEL-5 melanoma and in the assay on K-562 leukemia was above 100 µM in each case.
For `CN(C)c1ccc(/C=C2\CCc3ccccc3C2=O)cc1Br`, the TGI is above 100 µM in the assay with KM12 colon; above 100 µM with RXF 393 renal; 72.9 µM in the assay with RPMI-8226 leukemia; above 100 µM with NCI-H460 lung; above 100 µM in the assay on HOP-62 NSCLC; above 100 µM in the assay with SK-OV-3 ovarian. Further, the TGI was above 100 µM in the assay on EKVX NSCLC, 76.8 µM in the assay with SK-MEL-5 melanoma and above 100 µM with K-562 leukemia.
Regarding `O=c1c2cc(Br)ccc2nc(CNc2ccccc2)n1-c1ccccc1`, the TGI was above 100 µM in the assay with KM12 colon; 44.4 µM with RXF 393 renal; above 54.9 µM in the assay on RPMI-8226 leukemia; 45.4 µM in the assay with NCI-H460 lung; above 60.6 µM in the assay with HOP-62 NSCLC; above 96.4 µM in the assay with SK-OV-3 ovarian. The TGI turned out to be 40.7 µM with EKVX NSCLC, 38.1 µM with SK-MEL-5 melanoma and 58.1 µM in the assay on K-562 leukemia.
Regarding `CCC12C=C(C(=O)OC)N3c4ccccc4C4CCN(CCC1)C2C43` (stereo not drawn), the TGI with KM12 colon is above 100 µM; with RXF 393 renal, above 100 µM; with RPMI-8226 leukemia it was above 100 µM; in the assay on HOP-62 NSCLC it was 99.8 µM; in the assay on SK-OV-3 ovarian, above 100 µM; with EKVX NSCLC, above 100 µM. In addition, the TGI in the assay on SK-MEL-5 melanoma and with K-562 leukemia was above 100 µM throughout.
Turning to `N#CC1(CCCCl)CCCCC1`, the TGI in the assay with KM12 colon, in the assay on RXF 393 renal, with NCI-H460 lung, in the assay with SK-OV-3 ovarian, in the assay on EKVX NSCLC and in the assay on SK-MEL-5 melanoma was above 100 µM in each case.
As to `CCCCC(C(=O)C(=O)Nc1ccccc1CC)C(=O)C(C)C` (stereo not drawn), the TGI with KM12 colon, in the assay on RPMI-8226 leukemia, in the assay with NCI-H460 lung, in the assay with SK-OV-3 ovarian, in the assay on EKVX NSCLC and with SK-MEL-5 melanoma was above 100 µM in each case. This molecule also registered a TGI in the assay on K-562 leukemia above 100 µM.
For `Nc1ccccc1C(=O)/C=C/c1ccccc1O`, the TGI in the assay on KM12 colon was above 100 µM; in the assay with RXF 393 renal it was above 100 µM; with RPMI-8226 leukemia, 78.4 µM; in the assay with NCI-H460 lung, above 100 µM; with HOP-62 NSCLC, above 100 µM; with SK-OV-3 ovarian, above 100 µM. Besides, the TGI is above 100 µM in the assay with EKVX NSCLC, above 100 µM in the assay on SK-MEL-5 melanoma and 93.4 µM in the assay with K-562 leukemia.
For `O=C1c2ccccc2C2(O)N(c3ccccc3)C(=S)N(c3ccccc3)C12O` (stereo not drawn), the TGI in the assay with KM12 colon, in the assay on RXF 393 renal, with RPMI-8226 leukemia, in the assay on NCI-H460 lung, in the assay with HOP-62 NSCLC and in the assay with SK-OV-3 ovarian was above 100 µM each time. Also, the TGI with EKVX NSCLC, in the assay with SK-MEL-5 melanoma and in the assay on K-562 leukemia was above 100 µM in each case.
